# Reference: PubChem BioAssay AID2060612 (Molecular Pharmacology Branch, DTP, NCI, 2025)
# Tested on: 565232-114-T-J1-PDC complex spheroid viability
# Assay: Anticancer human tumor 565232-114-T-J1-PDC patient-derived bladder carcinoma cell line growth inhibition [CLK]
# Conditions: for IC50: curve of first compound; for viability, T/C: stronger effect = lower value
# Procedure, shortened: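 Multi-cell-type spheroids combined patient-derived tumor cells with HUVEC endothelial cells and human mesenchymal stem cells. Paired agents were dosed in half-log steps down from about clinical Cmax, or from 10 microM where Cmax was unknown.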
# [1] = second compound 0.0316 µM, first compound 0.0316 µM
# [2] = second compound 0.0316 µM, first compound 0.1 µM
# [3] = second compound 0.0316 µM, first compound 0.316 µM
# [4] = second compound 0.0316 µM, first compound 1 µM
# [5] = second compound 0.0316 µM, first compound 3.16 µM
# [6] = second compound 0.0316 µM, first compound 10 µM
# [7] = second compound 0.1 µM, first compound 0.0316 µM
# [8] = second compound 0.1 µM, first compound 0.1 µM
# [9] = second compound 0.1 µM, first compound 0.316 µM
# [10] = second compound 0.1 µM, first compound 1 µM
# [11] = second compound 0.1 µM, first compound 3.16 µM
# [12] = second compound 0.1 µM, first compound 10 µM
# [13] = second compound 0.316 µM, first compound 0.0316 µM
# [14] = second compound 0.316 µM, first compound 0.1 µM
# [15] = second compound 0.316 µM, first compound 0.316 µM
# [16] = second compound 0.316 µM, first compound 1 µM
# [17] = second compound 0.316 µM, first compound 3.16 µM
# [18] = second compound 0.316 µM, first compound 10 µM
# [19] = second compound 1 µM, first compound 0.0316 µM
# [20] = second compound 1 µM, first compound 0.1 µM
# [21] = second compound 1 µM, first compound 0.316 µM
# [22] = second compound 1 µM, first compound 1 µM
# [23] = second compound 1 µM, first compound 3.16 µM
# [24] = second compound 1 µM, first compound 10 µM
# [25] = second compound 3.16 µM, first compound 0.0316 µM
# [26] = second compound 3.16 µM, first compound 0.1 µM
# [27] = second compound 3.16 µM, first compound 0.316 µM
# [28] = second compound 3.16 µM, first compound 1 µM
# [29] = second compound 3.16 µM, first compound 3.16 µM
# [30] = second compound 3.16 µM, first compound 10 µM
# [31] = second compound 10 µM, first compound 0.0316 µM
# [32] = second compound 10 µM, first compound 0.1 µM
# [33] = second compound 10 µM, first compound 0.316 µM
# [34] = second compound 10 µM, first compound 1 µM
# [35] = second compound 10 µM, first compound 3.16 µM
# [36] = second compound 10 µM, first compound 10 µM
# 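Further: spheroids exposed to compounds for 7 days before readout.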
# 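Wherever viability, T/C is given: 100% = DMSO vehicle wells with luminescence normalized to vehicle control.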
compound,measurement,setting,value
CCCS(=O)(=O)Nc1ccc(F)c(C(=O)c2c[nH]c3ncc(-c4ccc(Cl)cc4)cc23)c1F + CNC(=O)c1ccc(Nc2nc(OC3CCCC3)c3c(-c4ccc5nc(C)oc5c4)c[nH]c3n2)c(OC)c1,IC50,second compound 0.0316 µM,5980 nM
same,IC50,second compound 0.1 µM,455 nM
same,IC50,second compound 0.316 µM,< 31.6 nM
same,IC50,second compound 1 µM,< 31.6 nM
same,IC50,second compound 3.16 µM,< 31.6 nM
same,IC50,second compound 10 µM,< 31.6 nM
same,"viability, T/C",[1],95.7%
same,"viability, T/C",[2],75.2%
same,"viability, T/C",[3],75.3%
same,"viability, T/C",[4],96.2%
same,"viability, T/C",[5],110%
same,"viability, T/C",[6],17.2%
same,"viability, T/C",[7],56.5%
same,"viability, T/C",[8],56.1%
same,"viability, T/C",[9],50.7%
same,"viability, T/C",[10],46.6%
same,"viability, T/C",[11],30.8%
same,"viability, T/C",[12],9.67%
same,"viability, T/C",[13],36.1%
same,"viability, T/C",[14],35.9%
same,"viability, T/C",[15],32.9%
same,"viability, T/C",[16],32.5%
same,"viability, T/C",[17],26.3%
same,"viability, T/C",[18],6.44%
same,"viability, T/C",[19],23.7%
same,"viability, T/C",[20],27.2%
same,"viability, T/C",[21],26.4%
same,"viability, T/C",[22],23.1%
same,"viability, T/C",[23],16.4%
same,"viability, T/C",[24],5.45%
same,"viability, T/C",[25],19.1%
same,"viability, T/C",[26],20.5%
same,"viability, T/C",[27],18.4%
same,"viability, T/C",[28],18.8%
same,"viability, T/C",[29],18.9%
same,"viability, T/C",[30],4.02%
same,"viability, T/C",[31],20.4%
same,"viability, T/C",[32],17.8%
same,"viability, T/C",[33],18.1%
same,"viability, T/C",[34],17.2%
same,"viability, T/C",[35],11.6%
same,"viability, T/C",[36],3.9%
Nc1ccccc1NC(=O)c1ccc(CNC(=O)OCc2cccnc2)cc1 + CNC(=O)c1ccc(Nc2nc(OC3CCCC3)c3c(-c4ccc5nc(C)oc5c4)c[nH]c3n2)c(OC)c1,IC50,second compound 0.0316 µM,2980 nM
same,IC50,second compound 0.1 µM,44.4 nM
same,IC50,second compound 0.316 µM,< 31.6 nM
same,IC50,second compound 1 µM,< 31.6 nM
same,IC50,second compound 3.16 µM,< 31.6 nM
same,IC50,second compound 10 µM,< 31.6 nM
same,"viability, T/C",[1],82%
same,"viability, T/C",[2],109%
same,"viability, T/C",[3],109%
same,"viability, T/C",[4],87.8%
same,"viability, T/C",[5],48.3%
same,"viability, T/C",[6],0.6%
same,"viability, T/C",[7],51%
same,"viability, T/C",[8],47.9%
same,"viability, T/C",[9],35%
same,"viability, T/C",[10],24.9%
same,"viability, T/C",[11],15.6%
same,"viability, T/C",[12],0.18%
same,"viability, T/C",[13],33.1%
same,"viability, T/C",[14],27.7%
same,"viability, T/C",[15],16.4%
same,"viability, T/C",[16],11.1%
same,"viability, T/C",[17],5.55%
same,"viability, T/C",[18],0.32%
same,"viability, T/C",[19],23.7%
same,"viability, T/C",[20],18.4%
same,"viability, T/C",[21],14.7%
same,"viability, T/C",[22],8.67%
same,"viability, T/C",[23],8.05%
same,"viability, T/C",[24],0.14%
same,"viability, T/C",[25],17.5%
same,"viability, T/C",[26],16.4%
same,"viability, T/C",[27],10.7%
same,"viability, T/C",[28],6.76%
same,"viability, T/C",[29],6.55%
same,"viability, T/C",[30],0.19%
same,"viability, T/C",[31],17.6%
same,"viability, T/C",[32],14.9%
same,"viability, T/C",[33],8.73%
same,"viability, T/C",[34],6.93%
same,"viability, T/C",[35],6.45%
same,"viability, T/C",[36],0.27%
